Values after ≈ are worked out from the molar mass of the structure shown.
Columns and labels:
[1] = system: Escherichia coli; assay: Antibacterial activity against aminoglycosides-susceptible Escherichia coli R477-100 by double microdilution method; assay type: functional
[2] = system: Escherichia coli; assay: Antibacterial activity against aminoglycosides-susceptible Escherichia coli 25922 by double microdilution method; assay type: functional; settings: ATCC 25922
[3] = system: Bacillus subtilis; assay: Antibacterial activity against aminoglycosides-susceptible Bacillus subtilis by double microdilution method; assay type: functional
[4] = system: Staphylococcus epidermidis; assay: Antibacterial activity against aminoglycosides-susceptible Staphylococcus epidermidis by double microdilution method; assay type: functional
[5] = system: Escherichia coli; assay: Ratio of MIC for aminoglycosides-resistant Escherichia coli BL21 harboring pET11d encode for APH(3')-2b resistance enzyme to MIC for Escherichia coli BL21; assay type: functional
[6] = system: Escherichia coli; assay: Antibacterial activity against kanamycin-resistant Escherichia coli AG100B by double microdilution method; assay type: functional
[7] = system: Escherichia coli; assay: Antibacterial activity against kanamycin-resistant Escherichia coli AG100A by double microdilution method; assay type: functional
[8] = system: Escherichia coli; assay: Antibacterial activity against Escherichia coli BL21 by double microdilution method; assay type: functional
[9] = system: Escherichia coli; assay: Antibacterial activity against aminoglycosides-resistant Escherichia coli BL21 harboring pSF815 encode for bifunctional AAC(6')/APH(2\") resistance enzyme by double microdilution method; assay type: functional
[10] = system: Escherichia coli; assay: Ratio of MIC for aminoglycosides-resistant Escherichia coli BL21 harboring pSF815 encode for bifunctional AAC(6')/APH(2\") resistance enzyme to MIC for Escherichia coli BL21; assay type: functional
[11] = system: Escherichia coli; assay: Antibacterial activity against aminoglycosides-resistant Escherichia coli BL21 harboring pET11d encode for APH(3')-2b resistance enzyme by double microdilution method; assay type: functional
[12] = system: Escherichia coli; assay: Antibacterial activity against aminoglycosides-resistant Escherichia coli BL21 harboring pETSACG1 encode for APH(3')-3a resistance enzyme by double microdilution method; assay type: functional
[13] = system: Escherichia coli; assay: Ratio of MIC for aminoglycosides-resistant Escherichia coli BL21 harboring pETSACG1 encode for APH(3')-3a resistance enzyme to MIC for Escherichia coli BL21; assay type: functional
[14] = system: Escherichia coli; assay: Antibacterial activity against Escherichia coli XL1 blue by double microdilution method; assay type: functional
[15] = system: Escherichia coli; assay: Antibacterial activity against Escherichia coli XL1 blue harboring pET9d encode for APH(3')-1a resistance enzyme by double microdilution method; assay type: functional
[16] = system: Escherichia coli; assay: Ratio of MIC for Escherichia coli XL1 blue harboring pET9d encode for APH(3')-1a resistance enzyme to MIC for Escherichia coli XL1 blue; assay type: functional
[17] = system: Escherichia coli; assay: Inhibition of protein translation in Escherichia coli S30 cell extract using circular DNA with pBESTluc after 60 mins; assay type: functional; settings: Escherichia coli, 1 h; read-out: IC50
[18] = Inhibition of Escherichia coli DNA gyrase using relaxed pBR322 DNA as substrate by agarose gel electrophorosis method; settings: read-out: IC50
[19] = Inhibition of Escherichia coli topoisomerase 4 using supercoiled pBR322 DNA as substrate by agarose gel electrophorosis method; settings: read-out: IC50

SMILES	MIC [1]	MIC [2]	MIC [3]	MIC [4]	Ratio [5]	MIC [6]	MIC [7]	MIC [8]	MIC [9]	Ratio [10]	MIC [11]	MIC [12]	Ratio [13]	MIC [14]	MIC [15]	Ratio [16]	IC50 [17]	IC50 [18]	IC50 [19]
NC[C@H]1O[C@H](O[C@H]2[C@H](O)[C@@H](O[C@H]3O[C@H](CO)[C@@H](O)[C@H](N)[C@H]3O)[C@H](NC(=O)CCCc3cn(CC(O)CN4CCN(c5cc6c(cc5F)c(=O)c(C(=O)O)cn6C5CC5)CC4)nn3)C[C@@H]2N)[C@H](O)[C@@H](O)[C@@H]1O (stereo partly specified)	12 mg/L (≈ 11.9 µM)	6 mg/L (≈ 5.95 µM)	1.5 mg/L (≈ 1.49 µM)	24 mg/L (≈ 23.8 µM)															
NC[C@H]1O[C@H](O[C@H]2[C@H](O)[C@@H](O[C@H]3O[C@H](CO)[C@@H](O)[C@H](N)[C@H]3O)[C@H](NCc3cn(Cc4cccc(CN5CCN(c6cc7c(cc6F)c(=O)c(C(=O)O)cn7C6CC6)CC5)c4)nn3)C[C@@H]2N)[C@H](O)[C@@H](O)[C@@H]1O	36 mg/L (≈ 36 µM)	24 mg/L (≈ 24 µM)	12 mg/L (≈ 12 µM)	18 mg/L (≈ 18 µM)	1	36 mg/L (≈ 36 µM)	1.5 mg/L (≈ 1.5 µM)	1.5 mg/L (≈ 1.5 µM)	0.8 mg/L (≈ 0.801 µM)	1	0.8 mg/L (≈ 0.801 µM)	0.8 mg/L (≈ 0.801 µM)	1	12 mg/L (≈ 12 µM)	24 mg/L (≈ 24 µM)	2			
NC[C@H]1O[C@H](O[C@H]2[C@H](O)[C@@H](O[C@H]3O[C@H](CO)[C@@H](O)[C@H](N)[C@H]3O)[C@H](NCc3cn(CCN4CCN(c5cc6c(cc5F)c(=O)c(C(=O)O)cn6C5CC5)CC4)nn3)C[C@@H]2N)[C@H](O)[C@@H](O)[C@@H]1O	6 mg/L (≈ 6.5 µM)	3 mg/L (≈ 3.25 µM)	1.5 mg/L (≈ 1.63 µM)	6 mg/L (≈ 6.5 µM)				0.2 mg/L (≈ 0.217 µM)									8.14 µM		
NC[C@H]1O[C@H](O[C@H]2[C@H](O)[C@@H](O[C@H]3O[C@H](CO)[C@@H](O)[C@H](N)[C@H]3O)[C@H](NC(=O)CCCc3cn(Cc4ccc(CN5CCN(c6cc7c(cc6F)c(=O)c(C(=O)O)cn7C6CC6)CC5)cc4)nn3)C[C@@H]2N)[C@H](O)[C@@H](O)[C@@H]1O	6 mg/L (≈ 5.69 µM)	3 mg/L (≈ 2.84 µM)	3 mg/L (≈ 2.84 µM)	6 mg/L (≈ 5.69 µM)	1	24 mg/L (≈ 22.7 µM)	0.75 mg/L (≈ 0.711 µM)	0.8 mg/L (≈ 0.758 µM)	0.8 mg/L (≈ 0.758 µM)	1	0.8 mg/L (≈ 0.758 µM)	0.8 mg/L (≈ 0.758 µM)	1	6 mg/L (≈ 5.69 µM)			2.19 µM		
NC[C@H]1O[C@H](O[C@H]2[C@H](O)[C@@H](O[C@H]3O[C@H](CO)[C@@H](O)[C@H](N)[C@H]3O)[C@H](NCc3cn(CCCCCCN4CCN(c5cc6c(cc5F)c(=O)c(C(=O)O)cn6C5CC5)CC4)nn3)C[C@@H]2N)[C@H](O)[C@@H](O)[C@@H]1O	12 mg/L (≈ 12.3 µM)	12 mg/L (≈ 12.3 µM)	6 mg/L (≈ 6.13 µM)	24 mg/L (≈ 24.5 µM)	1	24 mg/L (≈ 24.5 µM)	1.5 mg/L (≈ 1.53 µM)	0.8 mg/L (≈ 0.817 µM)	0.8 mg/L (≈ 0.817 µM)	1	0.8 mg/L (≈ 0.817 µM)	0.8 mg/L (≈ 0.817 µM)	1	12 mg/L (≈ 12.3 µM)	12 mg/L (≈ 12.3 µM)	1	6.46 µM		
NC[C@H]1O[C@H](O[C@H]2[C@H](O)[C@@H](O[C@H]3O[C@H](CO)[C@@H](O)[C@H](N)[C@H]3O)[C@H](NC(=O)CCc3cn(Cc4cccc(CN5CCN(c6cc7c(cc6F)c(=O)c(C(=O)O)cn7C6CC6)CC5)c4)nn3)C[C@@H]2N)[C@H](O)[C@@H](O)[C@@H]1O	24 mg/L (≈ 23.1 µM)	18 mg/L (≈ 17.3 µM)	9 mg/L (≈ 8.64 µM)	18 mg/L (≈ 17.3 µM)	2	48 mg/L (≈ 46.1 µM)	1.5 mg/L (≈ 1.44 µM)	0.8 mg/L (≈ 0.768 µM)	1.5 mg/L (≈ 1.44 µM)	2	1.5 mg/L (≈ 1.44 µM)	1.5 mg/L (≈ 1.44 µM)	2	12 mg/L (≈ 11.5 µM)	24 mg/L (≈ 23.1 µM)	2			
NC[C@H]1O[C@H](O[C@H]2[C@H](O)[C@@H](O[C@H]3O[C@H](CO)[C@@H](O)[C@H](N)[C@H]3O)[C@H](NC(=O)CCc3cn(CCOCCN4CCN(c5cc6c(cc5F)c(=O)c(C(=O)O)cn6C5CC5)CC4)nn3)C[C@@H]2N)[C@H](O)[C@@H](O)[C@@H]1O	12 mg/L (≈ 11.9 µM)	6 mg/L (≈ 5.95 µM)	9 mg/L (≈ 8.92 µM)	24 mg/L (≈ 23.8 µM)	1	24 mg/L (≈ 23.8 µM)	0.75 mg/L (≈ 0.743 µM)	0.8 mg/L (≈ 0.793 µM)	0.8 mg/L (≈ 0.793 µM)	1	0.8 mg/L (≈ 0.793 µM)	0.8 mg/L (≈ 0.793 µM)	1	12 mg/L (≈ 11.9 µM)	12 mg/L (≈ 11.9 µM)	1			
NC[C@H]1O[C@H](O[C@H]2[C@H](O)[C@@H](O[C@H]3O[C@H](CO)[C@@H](O)[C@H](N)[C@H]3O)[C@H](NC(=O)CCc3cn(CC(O)CN4CCN(c5cc6c(cc5F)c(=O)c(C(=O)O)cn6C5CC5)CC4)nn3)C[C@@H]2N)[C@H](O)[C@@H](O)[C@@H]1O (stereo partly specified)	12 mg/L (≈ 12.1 µM)	6 mg/L (≈ 6.03 µM)	9 mg/L (≈ 9.04 µM)	36 mg/L (≈ 36.2 µM)	1	24 mg/L (≈ 24.1 µM)	1.5 mg/L (≈ 1.51 µM)	0.2 mg/L (≈ 0.201 µM)	1.5 mg/L (≈ 1.51 µM)	1	1.5 mg/L (≈ 1.51 µM)	1.5 mg/L (≈ 1.51 µM)	1	24 mg/L (≈ 24.1 µM)	24 mg/L (≈ 24.1 µM)	1			
NC[C@H]1O[C@H](O[C@H]2[C@H](O)[C@@H](O[C@H]3O[C@H](CO)[C@@H](O)[C@H](N)[C@H]3O)[C@H](NC(=O)CCc3cn(Cc4ccc(CN5CCN(c6cc7c(cc6F)c(=O)c(C(=O)O)cn7C6CC6)CC5)cc4)nn3)C[C@@H]2N)[C@H](O)[C@@H](O)[C@@H]1O	36 mg/L (≈ 34.6 µM)	24 mg/L (≈ 23.1 µM)	6 mg/L (≈ 5.76 µM)	18 mg/L (≈ 17.3 µM)	2	48 mg/L (≈ 46.1 µM)	3 mg/L (≈ 2.88 µM)	0.8 mg/L (≈ 0.768 µM)	1.5 mg/L (≈ 1.44 µM)	2	1.5 mg/L (≈ 1.44 µM)	0.8 mg/L (≈ 0.768 µM)	1	24 mg/L (≈ 23.1 µM)	24 mg/L (≈ 23.1 µM)	1			
NC[C@H]1O[C@H](O[C@H]2[C@H](O)[C@@H](O[C@H]3O[C@H](CO)[C@@H](O)[C@H](N)[C@H]3O)[C@H](NC(=O)CCc3cn(CCN4CCN(c5cc6c(cc5F)c(=O)c(C(=O)O)cn6C5CC5)CC4)nn3)C[C@@H]2N)[C@H](O)[C@@H](O)[C@@H]1O	6 mg/L (≈ 6.22 µM)	3 mg/L (≈ 3.11 µM)	6 mg/L (≈ 6.22 µM)	18 mg/L (≈ 18.7 µM)	2	24 mg/L (≈ 24.9 µM)	0.75 mg/L (≈ 0.777 µM)	0.8 mg/L (≈ 0.829 µM)	0.4 mg/L (≈ 0.415 µM)	2	0.4 mg/L (≈ 0.415 µM)	0.6 mg/L (≈ 0.622 µM)	3	24 mg/L (≈ 24.9 µM)	18 mg/L (≈ 18.7 µM)	1	19.2 µM	9.9 µM	> 100 µM

Source: ChEMBL document CHEMBL4033618, “Covalently linked kanamycin - Ciprofloxacin hybrid antibiotics as a tool to fight bacterial resistance” (Bioorg Med Chem, 2017)
